Measurements from US12285431B2, “Treatment of Rb-negative tumors using topoisomerase inhibitors in combination with cyclin dependent kinase 4/6 inhibitors” (G1 Therapeutics, Inc., priority 2014, dated 2025).

Key:
HS68 cells = test: G1 arrest (cellular G1 and S-phase) assay, propidium iodide flow cytometry; format: cell-based, human; settings: Homo sapiens, Hs68, HS68 cells
Method: HS68 cells (human skin fibroblast cell line (Rb-positive)) were stained with propidium iodide staining solution and run on Dako Cyan Flow Cytometer. The fraction of cells in G0-G1 DNA cell cycle versus the fraction in S-phase DNA cell cycle was determined using FlowJo 7.2.2 analysis.
The compounds listed in Table 1 were tested for their ability to arrest HS68 cells at the G1 phase of the cell cycle.

CDK4/CyclinD1 = CDK4/CyclinD1 (Homo sapiens, UniProt P11802); test: CDK4/cyclinD1 kinase assay (Nanosyn, Caliper microfluidic kinase detection); format: biochemical; settings: Table 2; 12-point dose-response, ATP at Km (200 μM), 10 hr; read-out: CDK4/CycD1 IC50
Method: The assays were performed using microfluidic kinase detection technology (Caliper Assay Platform). The compounds were tested in 12-point dose-response format in singlicate at Km for ATP. Phosphoacceptor substrate peptide concentration used was 1 μM for all assays and Staurosporine was used as the reference compound for all assays. Specifics of each assay are as described below:
CDK4/CyclinD1: Enzyme concentration: 1 nM; ATP concentration: 200 μM; Incubation time: 10 hr.

[1] = tested on: ZR-75-1 (breast ductal carcinoma, Rb-positive); test: Cellular proliferation assay (CellTiter-Glo), ZR-75-1; format: cell-based; settings: Homo sapiens, ZR-75-1, 144 h, cell viability after six days, read-out: ZR75-1 Cellular EC50
Method: (§1) Further cellular proliferation assays were conducted using the following cancer cell lines: MCF7 (breast adenocarcinoma—Rb-positive), ZR-75-1 (breast ductal carcinoma—Rb-positive), H69 (human small cell lung cancer—Rb-negative) cells, or A2058 (human metastatic melanoma cells—Rb-negative). These cells were seeded in Costar (Tewksbury, Massachusetts) 3093 96 well tissue culture treated white walled/clear bottom plates. Cells were treated with the compounds of Table 1 as nine point dose response dilution series from 10 uM to 1 nM. Cells were exposed to compounds and then cell viability was determined after either four (H69) or six (MCF7, ZR75-1, A2058) days as indicated using the CellTiter-Glo® luminescent cell viability assay (CTG; Promega, Madison, Wisconsin, United States of America) following the manufacturer's recommendations. Plates were read on BioTek (Winooski, Vermont) Syngergy2 multi-mode plate reader. The Relative Light Units (RLU) were plotted as a result of variable molar concentration and data was analyzed using Graphpad (LaJolla, California) Prism 5 statistical software to determine the EC50 for each compound.

[2] = tested on: MCF7 (breast adenocarcinoma, Rb-positive); test: Cellular proliferation assay (CellTiter-Glo), MCF7; format: cell-based; settings: Homo sapiens, MCF7, 144 h, cell viability after six days
Method: as §1

[3] = tested on: H69 (human small cell lung cancer, Rb-negative) cells; test: Cellular proliferation assay (CellTiter-Glo), H69; format: cell-based; settings: NCI-H69, 96 h, cell viability after four days
Method: as §1

[4] = tested on: A2058 (human metastatic melanoma cells, Rb-negative); test: Cellular proliferation assay (CellTiter-Glo), A2058; format: cell-based; settings: A2058, 144 h, cell viability after six days
Method: as §1

Chain of CDK4/CyclinD1 (P11802 whole entry, species assumed): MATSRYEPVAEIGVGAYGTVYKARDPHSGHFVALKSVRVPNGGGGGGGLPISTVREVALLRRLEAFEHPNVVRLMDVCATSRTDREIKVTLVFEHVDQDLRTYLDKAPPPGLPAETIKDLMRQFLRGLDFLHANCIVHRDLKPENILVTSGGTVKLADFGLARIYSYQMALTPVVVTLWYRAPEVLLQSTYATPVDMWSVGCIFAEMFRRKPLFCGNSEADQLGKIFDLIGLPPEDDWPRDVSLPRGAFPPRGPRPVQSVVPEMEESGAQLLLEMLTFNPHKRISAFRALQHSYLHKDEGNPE
Chain of CDK4/CyclinD1 (P24385 whole entry partner, species assumed): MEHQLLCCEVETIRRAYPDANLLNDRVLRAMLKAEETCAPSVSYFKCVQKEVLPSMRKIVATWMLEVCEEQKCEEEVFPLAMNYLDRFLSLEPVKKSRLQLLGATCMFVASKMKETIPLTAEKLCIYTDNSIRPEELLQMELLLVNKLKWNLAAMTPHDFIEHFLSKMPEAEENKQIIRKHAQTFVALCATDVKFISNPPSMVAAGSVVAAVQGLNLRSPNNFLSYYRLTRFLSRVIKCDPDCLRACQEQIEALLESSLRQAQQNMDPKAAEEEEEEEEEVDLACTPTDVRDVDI

| EC50 (HS68 cells) [nM] | IC50 (CDK4/CyclinD1) [nM] | EC50 [1] [nM] | EC50 [2] [nM] | EC50 [3] [nM] | EC50 [4] [nM] | Structure (SMILES) |
| --- | --- | --- | --- | --- | --- | --- |
| 300 | 18.5 | – | – | – | – | CC(C)C[C@@H]1CNC(=O)c2cc3cnc(Nc4ccc(N5CCNCC5)cn4)nc3n21 [WWW] |
| 110 | 1.7 | – | – | – | – | O=C1NCC2(CCCCC2)n2c1cc1cnc(Nc3ccc(N4CCN(CC5CC5)CC4)cn3)nc12 [HH] |
| 150 | – | – | 76 | > 3000 | > 3000 | C[C@@H](O)CN1CCN(c2ccc(Nc3ncc4cc5n(c4n3)C3(CCCCC3)CNC5=O)nc2)CC1 [S] |
| 350 | 3.4 | – | – | – | – | CN(C)C1CCN(c2ccc(Nc3ncc4cc5n(c4n3)C3(CCCC3)CNC5=O)nn2)CC1 [TTT] |
| – | 4.1 | – | – | > 3000 | > 3000 | CCN(CC)C1CCN(c2ccc(Nc3ncc4cc5n(c4n3)C3(CCCCC3)CNC5=O)nc2)C1 (stereo not drawn) [QQ] |
| 350 | 13.7 | – | – | – | – | CC(C)N1CCN(c2ccc(Nc3ncc4cc5n(c4n3)C3(CCCC3)CNC5=O)nc2)CC1C (stereo not drawn) [GGG] |
| 250 | 6.8 | – | – | – | – | O=C1NCC2(CCCC2)n2c1cc1cnc(Nc3ccc(N4CCC(N5CCCCC5)CC4)cn3)nc12 [HHH] |
| 500 | 10.5 | – | – | – | – | O=C1NCC2(CCCC2)n2c1cc1cnc(Nc3ccc(N4CCNCC4)cn3)nc12 [QQQ] |
| 110 | 3.2 | 54 | 141 | – | – | C[C@H](O)CN1[C@H](C)CN(c2ccc(Nc3ncc4cc5n(c4n3)C3(CCCCC3)CNC5=O)nc2)C[C@@H]1C [Z] |
| 65 | 0.9 | – | – | > 3000 | > 3000 | O=C1NCC2(CCCCC2)n2c1cc1cnc(Nc3ccc(N4CCC(N5CCC(C(F)(F)F)CC5)CC4)cn3)nc12 [X] |
| 400 | 2.6 | – | – | – | – | CC(C)N1CCN(c2ccc(Nc3ncc4cc5n(c4n3)C3(CCCC3)CNC5=O)nn2)CC1 [RRR] |
| 300 | – | – | – | – | – | CCC(C)[C@@H]1CNC(=O)c2cc3cnc(Nc4ccc(N5CCNCC5)cn4)nc3n21 (stereo partly drawn) [VVV] |
| 65 | – | – | 506 | 2160 | > 3000 | CC(C)N1CCN(c2ccc(Nc3ncc4cc5n(c4n3)C3(CCCCC3)CNC5=O)nc2)C[C@H]1C [L] |
| 250 | 6 | – | – | – | – | CC(C)N1CCN(c2ccc(Nc3ncc4cc5n(c4n3)C3(CCCC3)CNC5=O)nc2)CC1 [III] |
| 100 | – | – | – | – | – | C[C@H]1CN(c2ccc(Nc3ncc4cc5n(c4n3)C3(CCCCC3)CNC5=O)nc2)CCN1CCC(C)(C)C [M] |

The remaining lines, values behind:

| Structure (SMILES) | EC50 (HS68 cells) [nM] | IC50 (CDK4/CyclinD1) [nM] | EC50 [1] [nM] | EC50 [2] [nM] | EC50 [3] [nM] | EC50 [4] [nM] |
| --- | --- | --- | --- | --- | --- | --- |
| CCC(C)CN1[C@H](C)CN(c2ccc(Nc3ncc4cc5n(c4n3)C3(CCCC3)CNC5=O)nc2)C[C@@H]1C (stereo partly drawn) [JJJ] | 240 | 3.2 | – | – | – | – |
| CC(C)C[C@@H]1CNC(=O)c2cc3cnc(Nc4ccc(N5CCN(C)CC5)cn4)nc3n21 [XXX] | 300 | 11.4 | – | – | – | – |
| CC(C)N1CCN(c2ccc(Nc3ncc4cc5n(c4n3)C3(CCCCC3)CNC5=O)nn2)CC1 [TT] | 75 | 0.8 | – | – | – | – |
| C[C@H]1CN(c2ccc(Nc3ncc4cc5n(c4n3)C3(CCCCC3)CNC5=O)nc2)CCN1CC1CC1 [B] | 90 | 0.4 | 245 | 201 | – | – |
| CC(C)N1CCN(c2ccc(Nc3ncc4cc5n(c4n3)C3(CCCCC3)CNC5=O)nc2)CC1C (stereo not drawn) [PP] | 100 | 3.1 | 66 | 164 | – | – |
| CC(C)(C)CCN1CCN(c2ccc(Nc3ncc4cc5n(c4n3)C3(CCCC3)CNC5=O)nc2)CC1(C)C [CCC] | 250 | 2 | – | – | – | – |
| CC1CN(c2ccc(Nc3ncc4cc5n(c4n3)C3(CCCC3)CNC5=O)nc2)CCN1CC1CC1 (stereo not drawn) [NNN] | 210 | 1.4 | – | – | – | – |
| CC(C)(O)CN1CCN(c2ccc(Nc3ncc4cc5n(c4n3)C3(CCCC3)CNC5=O)nc2)CC1 [EEE] | 250 | – | – | 453 | > 3000 | > 3000 |
| CC1CN(c2ccc(Nc3ncc4cc5n(c4n3)C3(CCCC3)CNC5=O)nc2)CCN1CCC(C)(C)C (stereo not drawn) [PPP] | 275 | – | – | – | – | – |
| CCN(CC)C1CCN(C(=O)c2ccc(Nc3ncc4cc5n(c4n3)C3(CCCCC3)CNC5=O)nc2)C1 (stereo not drawn) [JJ] | 90 | 1.4 | – | 122 | > 3000 | > 3000 |
| O=C1NCC2(CCCCC2)n2c1cc1cnc(Nc3ccc(N4CCN(C5CCC5)CC4)cn3)nc12 [F] | 175 | 1.5 | – | – | – | – |
| CN1CCN(c2ccc(Nc3ncc4cc5n(c4n3)C3(CCCC3)CNC5=O)nc2)CC1 [ZZ] | 500 | 10.5 | – | – | – | – |
| O=C1NCC2(CCCC2)n2c1cc1cnc(Nc3ccc(N4CCOCC4)nn3)nc12 [SSS] | 1500 | 2 | – | – | – | – |
| CC1CN(c2ccc(Nc3ncc4cc5n(c4n3)C3(CCCCC3)CNC5=O)nc2)CCN1CC(C)(C)O (stereo not drawn) [W] | 160 | 2.7 | – | 294 | > 3000 | > 3000 |
| C[C@H](O)CN1CCN(c2ccc(Nc3ncc4cc5n(c4n3)C3(CCCCC3)CNC5=O)nc2)C[C@@H]1C [C] | 95 | 1.4 | 73 | 88 | – | – |
| O=C1NCC2(CCCC2)n2c1cc1cnc(Nc3ccc(C(=O)N4CCN(CC5CC5)CC4)cn3)nc12 [OOO] | 200 | 2.4 | – | 138 | > 3000 | > 3000 |
| O=C1NCC2(CCCCC2)n2c1cc1cnc(Nc3ccc(C(=O)N4CCNCC4)cn3)nc12 [Y] | 350 | 2.5 | – | – | – | – |

| Structure (SMILES) | EC50 (HS68 cells) [nM] | IC50 (CDK4/CyclinD1) [nM] | EC50 [1] [nM] | EC50 [2] [nM] | EC50 [3] [nM] | EC50 [4] [nM] |
| --- | --- | --- | --- | --- | --- | --- |
| C[C@H]1CN(c2ccc(Nc3ncc4cc5n(c4n3)C3(CCCCC3)CNC5=O)nc2)CCN1 [KK] | 22 | 2.3 | – | 333 | 2420 | 1380 |
| C[C@@H](O)CN1CCN(c2ccc(Nc3ncc4cc5n(c4n3)C3(CCCC3)CNC5=O)nc2)C[C@@H]1C [VV] | 200 | 3.3 | – | – | – | – |
| CCN(CC)C1CCN(c2ccc(Nc3ncc4cc5n(c4n3)C3(CCCC3)CNC5=O)nc2)CC1 [LLL] | 250 | 3.2 | – | – | – | – |
| CCN1[C@H](C)CN(c2ccc(Nc3ncc4cc5n(c4n3)C3(CCCCC3)CNC5=O)nc2)C[C@@H]1C [FF] | 80 | – | – | 140 | – | – |
| C[C@@H]1CN(c2ccc(Nc3ncc4cc5n(c4n3)C3(CCCCC3)CNC5=O)nc2)CCN1C [NN] | 110 | 3.7 | – | – | – | – |
| C[C@@H]1CN(c2ccc(Nc3ncc4cc5n(c4n3)C3(CCCC3)CNC5=O)nc2)C[C@H](C)N1 [DDD] | 350 | 9.5 | – | – | – | – |
| CCC(C)CN1CCN(c2ccc(Nc3ncc4cc5n(c4n3)C3(CCCC3)CNC5=O)nc2)CC1 (stereo not drawn) [AAA] | – | 2.3 | – | 320 | > 3000 | > 3000 |
| CCN(CC)C1CCN(C2CCN(c3ccc(Nc4ncc5cc6n(c5n4)C4(CCCCC4)CNC6=O)nc3)CC2)C1 (stereo not drawn) [RR] | 90 | 1.2 | – | 72 | 2890 | 1620 |
| O=C1NCC2(CCCCC2)n2c1cc1cnc(Nc3ccc(C(=O)N4CCN(C5CCC5)CC4)cn3)nc12 [LL] | 125 | 2 | – | 96 | > 3000 | > 3000 |
| CC(C)[C@H]1CNC(=O)c2cc3cnc(Nc4ccc(N5CCNCC5)cn4)nc3n21 [UUU] | 300 | – | – | – | – | – |
| CC1CCN(C2CCN(c3ccc(Nc4ncc5cc6n(c5n4)C4(CCCCC4)CNC6=O)nc3)CC2)C1 (stereo not drawn) [K] | 28 | 1 | – | 43 | > 3000 | 1790 |
| CC1(C)CN(c2ccc(Nc3ncc4cc5n(c4n3)C3(CCCCC3)CNC5=O)nc2)CCN1C1CC1 [BB] | 75 | 0.8 | – | – | 2940 | 1640 |
| CCC(C)CN1CCN(c2ccc(Nc3ncc4cc5n(c4n3)C3(CCCC3)CNC5=O)nc2)CC1 (stereo not drawn) [FFF] | – | 4.7 | – | – | – | – |
| C[C@@H]1CN(c2ccc(Nc3ncc4cc5n(c4n3)C3(CCCCC3)CNC5=O)nc2)C[C@H](C)N1C [DD] | 100 | 1.9 | – | – | – | – |
| CC(C)(C)CCN1CCN(c2ccc(Nc3ncc4cc5n(c4n3)C3(CCCC3)CNC5=O)nc2)CC1 [KKK] | 190 | 1.3 | – | – | – | – |
| C[C@H](O)CN1CCN(c2ccc(Nc3ncc4cc5n(c4n3)C3(CCCC3)CNC5=O)nc2)C[C@H]1C [XX] | 225 | 1.3 | – | – | – | – |
| CC1CN(c2ccc(Nc3ncc4cc5n(c4n3)C3(CCCCC3)CNC5=O)nc2)CCN1CCC(C)(C)C (stereo not drawn) [G] | 175 | 1.5 | – | – | – | – |
